No end group written: not given here.
Columns and labels:
peptide-specific pfc = assay: pfc assay: melittin peptide-specific IgG pfc in spleens of mice primed and boosted with melittin; type: in vivo, C57BL/6 mice; settings: Table 7
Experimental: Female C57BL/6 mice, ages 5 to 8 weeks were purchased from The Jackson Laboratory, Bar Harbor, Me. Animals were maintained and treated accordingly to National Institutes of Health guidelines.
Mice were primed by an i.p. injection containing 5 μg of melittin precipitated on alum and 2×10^9 B. pertussis (Michigan Department of Public Health, Lansing, Mich.) as an adjuvant. The mice were boosted with 5 μg of melittin, i.p., in PBS.
Sheep Red Blood Cells (SRBC) (Colorado Serum Co., Denver, Colo.) were conjugated with melittin-peptide […] using carbodiimide. Fresh SRBC (less than 2 weeks old) were washed four times with cold saline and one time with mannitol (0.35 M mannitol, 0.01 M NaCl). The SRBC were suspended in mannitol to a concentration of 10% (v/v). 100 μL of mannitol containing 30 μg of melittin peptide #3 were added to 1 mL aliquots of 10% SRBC which were then incubated on ice for 10 minutes. 100 μL of a 100 mg/mL solution of 1-ethyl-3 (3-dimethylaminopropyl)-carbodiimide HCl (EDCI) was then added and incubated on ice for 30 minutes. The SRBC were washed twice with Balanced Salt Solution (BSS) (Irvine Scientific Co, Irvine, Calif.) and resuspended to 10% (v/v). Lyophilized guinea pig complement (GIBCO, New York, N.Y.) was reconstituted with BSS and then diluted 1:3 with BSS. One mL of the diluted guinea pig complement was added to 3 mL of conjugated SRBC. Rabbit anti-mouse IgG was added to give a final dilution of 1:100 of the rabbit antiserum. This concentration was predetermined to inhibit all IgM pfc while enhancing the maximum number of IgG pfc. An equal volume of this complement/anti-mouse IgG/SRBC suspension was mixed with a cell suspension of mouse spleen cells taken from a single mouse. 50 μL of each mixture was transferred to the chambers of a Cunningham slide (three chambers per slide). The edges were then sealed with paraffin and incubated at 37° C. for one hour. The number of plaques per chamber was counted with the aid of a dissecting microscope. Each spleen suspension was also assayed using non-conjugated SRBC as a control. The number of viable cells, in each spleen cell suspension, was determined. The number of pfc per 10^6 spleen cells was determined for each chamber and the mean of the triplicates calculated. The number of pfc for non-conjugated SRBC was subtracted from the number of pfc for conjugated SRBC to determine the number of peptide-specific pfc.
Two different tolerogens were constructed to determine if the orientation of the peptide on the PEG conjugate affects its ability to induce tolerance. The peptide was covalently bound to valency platform molecule 3 through its C-terminal end to make melittin conjugate 3. Groups (3/group) of mice primed with melittin were treated, i.p., with conjugates or with saline. Five days later all of the mice, including the non-treated control group, were boosted with […] of melittin. Six days later the mice were sacrificed, their spleens were harvested and the number of peptide specific pfc determined. As-illustrated in Table 8, both orientations were effective in reducing the number of peptide-specific pfc/10^6 spleen cells in mice primed and boosted with the parent protein Melittin.
Three different conjugates, each with a different number of peptides per PEG conjugate, were constructed to determine if the ratio of peptides to PEG molecule was important. Conjugate 1 had only two peptides per PEG conjugate. Another had four peptides per PEG conjugate (Conjugate 2). The third had eight peptides per PEG conjugate (Conjugate 5). Groups (3/group) of mice primed with melittin were treated, i.p., with the different conjugates or with saline. Five days later all of the nice, including the non-treated control group, were boosted with 5 μg of melittin. Six days later, the mice were sacrificed, their spleens were harvested and the number of peptide-specific pfc determined.

[1] = tested on: cultured T cell from melittin-immunized mice; assay: Murine lymph node proliferation assay ([3H]thymidine uptake); type: cell-based, Balb/c mice; settings: T cells from mice primed with melittin; 10, 1.0 or 0.1 μg/mL; FIG. 8
Experimental: Femal Balb/c mic (6-8 weeks old; Jackson Laboratory, Bar Harbor, Me.) were obtained and housed at the La Jolla Pharmaceutical animal facility according to National Institutes of Health guidelines. Food and water was provided ad libitum. Balb/c mice were immunized in each hind footpad with 50 μg of melittin molecule in Complete Freund's Adjuvant (CFA) (Sigma Chemical Co., St. Louis, Mo.). Popliteal lymph nodes were harvested aseptically seven days later. Lymph nodes were gently dissociated by teasing the cells through a 50 mesh sieve screen. The single cell suspension was washed in RPMI-1640 (Irvine Scientific, Irvine Calif.) containing glutamine, penicillin and streptomycin. 5×10^5 cells in RPMI medium supplemented with 10% fetal bovine serum (FCS) in quadruplicate wells of round bottom 96-well Corning microtitration plates were-cultured with melittin or a melittin peptide at 10, 1.0 or 0.1 μg/mL. Cells in the positive control wells were cultured with murine interleukin 2 (IL-2) at 100 or 50 U/mL, PHA (phytohemagglutinin) at 1 μg/mL. The negative control wells contained lymph node cells in RPM-1640 and 10% FCS. The cells were cultured for 4 days in a 37° C. incubator with 5% CO2. Each well was pulsed with 1 μCi of [^3H]thymidine (ICN Biochemicals, Costa Mesa, Calif.) for an additional 18 hours. Cells were harvested onto a glass fiber filter mat using a semiautomatic cell harvester (Scatron, Sterling, Va.). Incorporation of [^3H]thymidine was determined by liquid scintillation. The results were expressed as average counts per minute.

Compound | T cell proliferation (in words) [1] | also measured
N,N′-Bis-(3,5-bis-(iodoacetamido)benzoyl) derivative of α,ω-bis-(N-2-aminoethylcarbamoyl)polyethyleneglycol [Compound 3] |  | % Reduction (peptide-specific pfc; 250 μg/mouse i.p.): 67.3%; Peptide specific pfc per 10^6 spleen cells (Mean and S.D.) (peptide-specific pfc; 250 μg/mouse i.p.): 957 (298) pfc per 10^6 spleen cells; % Reduction (peptide-specific pfc; 500 μg/mouse i.p.): 83.3%; Peptide specific pfc per 10^6 spleen cells (Mean and S.D.) (peptide-specific pfc; 500 μg/mouse i.p.): 489 (one mouse) pfc per 10^6 spleen cells; % Reduction (peptide-specific pfc; 1000 μg/mouse i.p.): 86.8%; Peptide specific pfc per 10^6 spleen cells (Mean and S.D.) (peptide-specific pfc; 1000 μg/mouse i.p., boost 5 days later, spleens 6 days after boost): 386 (85) pfc per 10^6 spleen cells
SWIKRKRQQG [Melittin Peptide #3] | showed T cell proliferation | 
CC[C@H](C)[C@H](NC(=O)CN)C(=O)NCC(=O)N[C@@H](C)C(=O)N[C@H](C(=O)N[C@@H](CC(C)C)C(=O)N[C@@H](CCCCN)C(=O)N[C@H](C(=O)N[C@@H](CC(C)C)C(=O)N[C@H](C(=O)N[C@H](C(=O)NCC(=O)N[C@@H](CC(C)C)C(=O)N1CCC[C@H]1C(=O)N[C@@H](C)C(=O)N[C@@H](CC(C)C)C(=O)N[C@H](C(=O)N[C@@H](CO)C(=O)N[C@@H](Cc1c[nH]c2ccccc12)C(=O)N[C@H](C(=O)N[C@@H](CCCCN)C(=O)N[C@@H](CCCNC(=N)N)C(=O)N[C@@H](CCCCN)C(=O)N[C@@H](CCCNC(=N)N)C(=O)N[C@@H](CCC(N)=O)C(=O)N[C@@H](CCC(N)=O)C(N)=O)[C@@H](C)CC)[C@@H](C)CC)[C@@H](C)O)[C@@H](C)O)C(C)C)C(C)C [Melittin, reference compound] | showed T cell proliferation | 
Cys-Ile-Ser-Trp-Ile-Lys-Arg-Lys-Arg-Gln-Gln-Gly (CISWIKRKRQQG; printed: Cys-Ile-Ser-Trp-Ile-Lys-Arg-Lys-Arg-Gln-Gln-Gly) [Melittin Peptide #5] | showed T cell proliferation | 
IKRKRQQG [Melittin Peptide #1] | no significant T cell proliferation | 
Ile-Ser-Trp-Ile-Lys-Arg-Lys-Arg-Gln-Gln-Gly (ISWIKRKRQQG; printed: Ile-Ser-Trp-Ile-Lys-Arg-Lys-Arg-Gln-Gln-Gly) [Melittin Peptide #4] | showed T cell proliferation | 
WIKRKRQQG [Melittin Peptide #2] | no significant T cell proliferation | 
